According to patent US11878965B2, “Inhibitors of peptidylarginine deiminases” (Gilead Sciences, Inc., priority 2020, dated 2024):

Biological target: human PAD4 (Homo sapiens (Human), UniProt Q9UM07)
Experiment: In Vitro PAD4 BAEE Biochemical Assay
Details: geometric mean of multiple experiments
In short: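 Recombinant human PAD4 (His-SUMO tag removed, E. coli-expressed), 5 nM, preincubated with compound and 2 mM CaCl2 30 min at 25 °C in MOPS pH 7.6 with DTT; 3 mM BAEE added for 2 h at 25 °C, EDTA stop. Released ammonia detected by o-phthalaldehyde/DTT fluorescence (ex 405, em 535 nm).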

[1] = human PAD4, BAEE substrate, 5 nM PAD4, 2 mM calcium chloride, 3 mM BAEE

Sequence of human PAD4 (Q9UM07 2-663): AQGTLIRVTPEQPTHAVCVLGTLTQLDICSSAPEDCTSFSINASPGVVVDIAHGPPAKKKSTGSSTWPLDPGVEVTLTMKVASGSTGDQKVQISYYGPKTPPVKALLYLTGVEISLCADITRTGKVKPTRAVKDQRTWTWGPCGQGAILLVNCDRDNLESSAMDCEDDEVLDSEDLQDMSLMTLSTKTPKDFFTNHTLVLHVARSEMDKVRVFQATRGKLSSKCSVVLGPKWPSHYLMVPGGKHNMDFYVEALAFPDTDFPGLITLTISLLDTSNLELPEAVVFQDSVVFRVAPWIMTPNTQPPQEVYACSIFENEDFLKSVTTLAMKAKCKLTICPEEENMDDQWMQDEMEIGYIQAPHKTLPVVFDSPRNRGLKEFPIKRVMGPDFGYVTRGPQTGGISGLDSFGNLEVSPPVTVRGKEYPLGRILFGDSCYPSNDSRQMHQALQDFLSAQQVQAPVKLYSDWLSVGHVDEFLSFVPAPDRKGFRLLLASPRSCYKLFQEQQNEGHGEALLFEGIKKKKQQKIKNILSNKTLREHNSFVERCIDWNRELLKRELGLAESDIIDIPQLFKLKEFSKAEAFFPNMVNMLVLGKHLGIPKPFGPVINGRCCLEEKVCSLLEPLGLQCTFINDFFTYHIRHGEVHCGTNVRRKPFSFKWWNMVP

SMILES | IC50 [1] [µM] | IC50 (recombinant PAD4 5 nM, 2 mM calcium chloride, 3 mM BAEE substrate) [µM]
COc1cc(C(=O)N2C[C@H](N)CCN2C)cc2nc(-c3cc4ccc([C@@H](C)NC(=O)c5cc(F)ccc5C)nc4n3CC3CC3)n(C)c12 [Example 197, N-((R)-1-(2-(5-((R)-5-amino-2-methylhexahydropyridazine-1-carbonyl)-7-methoxy-1-methyl-1H-benzo[d]imidazol-2-yl)-1-(cyclopropylmethyl)-1H-pyrrolo[2,3-b]pyridin-6-yl)ethyl)-5-fluoro-2-methylbenzamide] | 0.116 | 
COc1cc(C(=O)N2C[C@H](N)CCN2C)cc2nc(-c3cc4ccc([C@@H](C)NC(=O)C5(c6ccc(F)cc6)CC5)nc4n3CC3CC3)n(C)c12 [Example 199, N-((R)-1-(2-(5-((R)-5-amino-2-methylhexahydropyridazine-1-carbonyl)-7-methoxy-1-methyl-1H-benzo[d]imidazol-2-yl)-1-(cyclopropylmethyl)-1H-pyrrolo[2,3-b]pyridin-6-yl)ethyl)-1-(4-fluorophenyl)cyclopropane-1-carboxamide] | 0.34 | 
C[C@@H](NS(=O)(=O)C1CC1)c1ccc2cc(-c3nc4cc(C(=O)N5C[C@H](N)[C@@H]6CC[C@H]5C6)cc(F)c4n3C3CC3)n(CC3CC3)c2n1 [Example 232, N-((R)-1-(2-(5-((1S,4R,5R)-4-amino-2-azabicyclo[3.2.1]octane-2-carbonyl)-1-cyclopropyl-7-fluoro-1H-benzo[d]imidazol-2-yl)-1-(cyclopropyImethyl)-1H-pyrrolo[2,3-b]pyridin-6-yl)ethyl)cyclopropanesulfonamide] |  | 0.0898
COc1cc(C(=O)N2C[C@H](N)CC[C@@H]2C)cc2nc(-c3cc4ccc(N5CCCC5=O)nc4n3CC3CC3)n(C)c12 [Example 279, 1-(2-(5-((2S,5R)-5-amino-2-methylpiperidine-1-carbonyl)-7-methoxy-1-methyl-1H-benzo[d]imidazol-2-yl)-1-(cyclopropylmethyl)-1H-pyrrolo[2,3-b]pyridin-6-yl)pyrrolidin-2-one] | 1.18 | 
COc1cc(C(=O)N2CCC[C@@H](N)C2)cc2nc(-c3cc4ccc(N(C)S(C)(=O)=O)nc4n3CC3CC3)n(CC3CC3)c12 [Example 23, (R)-N-(2-(5-(3-aminopiperidine-1-carbonyl)-1-(cyclopropylmethyl)-7-methoxy-1H-benzo[d]imidazol-2-yl)-1-(cyclopropylmethyl)-1H-pyrrolo[2,3-b]pyridin-6-yl)-N-methylmethanesulfonamide] | 0.125 | 
C[C@H](CN)NC(=O)c1cc2nc(-c3cc4ccc(N(C(F)F)S(C)(=O)=O)nc4n3CC3CC3)n(C)c2cc1F [Example 94, (R)-N-(1-aminopropan-2-yl)-2-(1-(cyclopropylmethyl)-6-((N-(difluoromethyl)methyl)sulfonamido)-1H-pyrrolo[2,3-b]pyridin-2-yl)-6-fluoro-1-methyl-1H-benzo[d]imidazole-5-carboxamide] | 26.4 | 
CN(c1ccc2cc(-c3nc4cc(C(=O)N5CCC[C@@H](N)C5)cc5c4n3CCO5)n(CC3CC3)c2n1)S(C)(=O)=O [Example 89, (R)-N-(2-(7-(3-aminopiperidine-1-carbonyl)-3,4-dihydro-5-oxa-1,2a-diazaacenaphthylen-2-yl)-1-(cyclopropylmethyl)-1H-pyrrolo[2,3-b]pyridin-6-yl)-N-methylmethanesulfonamide] | 0.812 | 
CCN(C(C)=O)c1ccc2cc(-c3nc4cc(C(=O)N5CCC[C@@H](N)C5)cc(OC)c4n3C)n(CC3CC3)c2n1 [Example 115, (R)-N-(2-(5-(3-aminopiperidine-1-carbonyl)-7-methoxy-1-methyl-1H-benzo[d]imidazol-2-yl)-1-(cyclopropylmethyl)-1H-pyrrolo [2,3-b]pyridin-6-yl)-N-ethylacetamide] | 0.379 | 
COc1cc(C(=O)N2CCC[C@@H](N)C2)cc2nc(-c3cc4cc(F)c([C@@H](C)NC(=O)C56CC(F)(C5)C6)cc4n3CC3CC3)n(C)c12 [Example 145, N-((R)-1-(2-(5-((R)-3-aminopiperidine-1-carbonyl)-7-methoxy-1-methyl-1H-benzo[d]imidazol-2-yl)-1-(cyclopropylmethyl)-5-fluoro-1H-indol-6-yl)ethyl)-3-fluorobicyclo[1.1.1]pentane-1-carboxamide] | 0.0628 | 
